One data set concerns Streptococcus pneumoniae. In words: Antibacterial activity against Streptococcus pneumoniae after 18 to 24 hrs by agar dilution method. It counts as functional, organism-based. (In general: In agar dilution, organisms are placed on agar that contains the substance at set levels.)
Data set [1] is described as follows: Inhibition of Haemophilus influenzae ATCC 51907 GlmU expressed in Escherichia coli BL21(DE3) incubated for 15 mins prior to MgCl2 addition measured after 30 mins by malachite green staining-based assay.
Data set [2] has as its target Tyrosine-protein kinase JAK1 (Homo sapiens, UniProt P23458). In words: Inhibition of human JAK1 incubated for 20 mins prior to MgCl2 addition measured after 90 mins by mobility shift assay.
The next data set concerns Streptococcus pyogenes. The data set can be described thus: Antibacterial activity against Streptococcus pyogenes after 18 to 24 hrs by agar dilution method. It is filed as functional, organism-based.
Data set [3] has as its target Cyclin-dependent kinase 9 (Homo sapiens, UniProt P50750). The data set can be described thus: Inhibition of human CDK9 incubated for 20 mins prior to MgCl2 addition measured after 90 mins by mobility shift assay.
In the next data set the test system is Haemophilus influenzae. In words: Antibacterial activity against Haemophilus influenzae after 18 to 24 hrs by agar dilution method. It counts as functional, organism-based.
The subject of another data set is Moraxella catarrhalis. The data set can be described thus: Antibacterial activity against Moraxella catarrhalis after 18 to 24 hrs by agar dilution method. It counts as functional, organism-based.
Data set [4] concerns the target Interleukin-1 receptor-associated kinase 1 (Homo sapiens, UniProt P51617). In words: Inhibition of human IRAK1 incubated for 20 mins prior to MgCl2 addition measured after 90 mins by mobility shift assay.
Data set [5] has as its target Cyclin-dependent kinase 1 (Homo sapiens, UniProt P06493). In words: Inhibition of human CDK1 incubated for 20 mins prior to MgCl2 addition measured after 90 mins by mobility shift assay.
Data set [6] can be described thus: Serum protein binding in human at 10 uM after 30 mins by ultrafiltration method. It counts as ADME. The note with it: read-out: PB (converted).
The target in data set [7] is Tyrosine-protein kinase JAK2 (Homo sapiens, UniProt O60674). The data set can be described thus: Inhibition of human JAK2 incubated for 20 mins prior to MgCl2 addition measured after 90 mins by mobility shift assay.
For data set [8], the target named is Bifunctional protein GlmU (Escherichia coli, UniProt C3SLB7). In words: Inhibition of Escherichia coli ATCC 27325 GlmU expressed in Escherichia coli HMS174(DE3) incubated for 15 mins prior to MgCl2 addition measured after 30 mins by malachite green staining-based assay.
Data set [9] addresses T1, Interleukin-1 receptor-associated kinase 4 (Homo sapiens, UniProt Q9NWZ3).
T1 sequence (Q9NWZ3 whole entry): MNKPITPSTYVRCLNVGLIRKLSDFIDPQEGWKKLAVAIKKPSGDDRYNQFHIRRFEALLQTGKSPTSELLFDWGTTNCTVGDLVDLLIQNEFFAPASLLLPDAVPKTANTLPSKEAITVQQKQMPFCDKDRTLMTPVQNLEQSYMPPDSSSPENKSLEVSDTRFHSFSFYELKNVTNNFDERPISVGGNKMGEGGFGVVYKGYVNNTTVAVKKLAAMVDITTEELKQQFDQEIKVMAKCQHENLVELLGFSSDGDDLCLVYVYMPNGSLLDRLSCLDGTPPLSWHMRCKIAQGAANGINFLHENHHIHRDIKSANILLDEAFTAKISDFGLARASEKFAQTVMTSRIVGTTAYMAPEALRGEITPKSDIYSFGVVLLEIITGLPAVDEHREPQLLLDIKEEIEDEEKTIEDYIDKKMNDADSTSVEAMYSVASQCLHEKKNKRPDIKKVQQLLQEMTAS
In words: Inhibition of human IRAK4 incubated for 20 mins prior to MgCl2 addition measured after 90 mins by mobility shift assay.

The target of data set [10] is T2, Tyrosine-protein kinase JAK3 (Homo sapiens, UniProt P52333).
T2 sequence (P52333 whole entry): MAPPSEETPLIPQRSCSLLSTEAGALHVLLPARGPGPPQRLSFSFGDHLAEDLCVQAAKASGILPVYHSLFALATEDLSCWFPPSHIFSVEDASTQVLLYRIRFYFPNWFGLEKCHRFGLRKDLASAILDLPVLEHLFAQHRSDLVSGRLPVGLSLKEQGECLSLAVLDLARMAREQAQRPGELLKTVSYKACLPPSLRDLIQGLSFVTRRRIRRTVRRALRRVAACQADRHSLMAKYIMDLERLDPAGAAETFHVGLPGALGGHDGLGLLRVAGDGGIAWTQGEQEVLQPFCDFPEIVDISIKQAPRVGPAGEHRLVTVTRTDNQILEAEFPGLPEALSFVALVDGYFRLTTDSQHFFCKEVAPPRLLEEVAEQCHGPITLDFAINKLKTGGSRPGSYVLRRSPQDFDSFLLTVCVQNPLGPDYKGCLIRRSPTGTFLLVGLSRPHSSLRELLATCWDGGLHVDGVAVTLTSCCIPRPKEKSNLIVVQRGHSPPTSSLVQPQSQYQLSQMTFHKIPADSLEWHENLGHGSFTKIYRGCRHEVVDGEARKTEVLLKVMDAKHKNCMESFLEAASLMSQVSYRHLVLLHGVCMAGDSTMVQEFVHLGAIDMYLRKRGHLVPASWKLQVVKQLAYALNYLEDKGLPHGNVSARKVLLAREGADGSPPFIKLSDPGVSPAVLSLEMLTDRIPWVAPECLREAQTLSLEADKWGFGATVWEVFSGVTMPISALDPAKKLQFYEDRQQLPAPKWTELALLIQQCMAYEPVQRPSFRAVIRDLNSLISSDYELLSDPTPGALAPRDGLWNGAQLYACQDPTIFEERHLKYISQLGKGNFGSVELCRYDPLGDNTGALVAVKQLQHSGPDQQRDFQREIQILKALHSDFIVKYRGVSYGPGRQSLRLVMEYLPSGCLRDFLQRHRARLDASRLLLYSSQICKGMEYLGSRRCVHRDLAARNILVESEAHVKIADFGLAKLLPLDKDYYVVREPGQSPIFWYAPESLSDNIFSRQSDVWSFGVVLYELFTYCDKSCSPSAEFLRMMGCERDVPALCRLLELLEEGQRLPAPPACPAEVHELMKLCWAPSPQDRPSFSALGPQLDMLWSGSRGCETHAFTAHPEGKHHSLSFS
The data set can be described thus: Inhibition of human JAK3 incubated for 20 mins prior to MgCl2 addition measured after 90 mins by mobility shift assay.

Data set [11] concerns the target Cyclin-dependent kinase 2 (Homo sapiens, UniProt P24941). The data set can be described thus: Inhibition of human CDK2 incubated for 20 mins prior to MgCl2 addition measured after 90 mins by mobility shift assay.
Another data set addresses Aurora kinase B (Homo sapiens, UniProt Q96GD4). The data set can be described thus: Inhibition of human AURKB incubated for 20 mins prior to MgCl2 addition measured after 90 mins by mobility shift assay.

SMILES strings stand for the structures. The source made the active and inactive calls. The calls are words filed in the database; no cut-off is given here.

These results are taken from ChEMBL document CHEMBL3351874, “Rational design of inhibitors of the bacterial cell wall synthetic enzyme GlmU using virtual screening and lead-hopping” (Bioorg Med Chem, 2014).

Chain of Cyclin-dependent kinase 9 (P50750 whole entry): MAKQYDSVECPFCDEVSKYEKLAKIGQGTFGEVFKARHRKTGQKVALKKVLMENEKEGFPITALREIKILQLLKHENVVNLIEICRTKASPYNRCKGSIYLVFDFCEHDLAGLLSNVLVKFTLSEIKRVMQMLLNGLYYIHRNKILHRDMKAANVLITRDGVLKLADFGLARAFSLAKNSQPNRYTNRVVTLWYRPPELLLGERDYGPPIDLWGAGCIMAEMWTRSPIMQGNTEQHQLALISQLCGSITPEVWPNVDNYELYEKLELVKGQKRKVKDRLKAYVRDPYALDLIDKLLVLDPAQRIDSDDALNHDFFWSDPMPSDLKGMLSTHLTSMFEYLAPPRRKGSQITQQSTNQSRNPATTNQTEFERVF
Chain of Tyrosine-protein kinase JAK2 (O60674 whole entry): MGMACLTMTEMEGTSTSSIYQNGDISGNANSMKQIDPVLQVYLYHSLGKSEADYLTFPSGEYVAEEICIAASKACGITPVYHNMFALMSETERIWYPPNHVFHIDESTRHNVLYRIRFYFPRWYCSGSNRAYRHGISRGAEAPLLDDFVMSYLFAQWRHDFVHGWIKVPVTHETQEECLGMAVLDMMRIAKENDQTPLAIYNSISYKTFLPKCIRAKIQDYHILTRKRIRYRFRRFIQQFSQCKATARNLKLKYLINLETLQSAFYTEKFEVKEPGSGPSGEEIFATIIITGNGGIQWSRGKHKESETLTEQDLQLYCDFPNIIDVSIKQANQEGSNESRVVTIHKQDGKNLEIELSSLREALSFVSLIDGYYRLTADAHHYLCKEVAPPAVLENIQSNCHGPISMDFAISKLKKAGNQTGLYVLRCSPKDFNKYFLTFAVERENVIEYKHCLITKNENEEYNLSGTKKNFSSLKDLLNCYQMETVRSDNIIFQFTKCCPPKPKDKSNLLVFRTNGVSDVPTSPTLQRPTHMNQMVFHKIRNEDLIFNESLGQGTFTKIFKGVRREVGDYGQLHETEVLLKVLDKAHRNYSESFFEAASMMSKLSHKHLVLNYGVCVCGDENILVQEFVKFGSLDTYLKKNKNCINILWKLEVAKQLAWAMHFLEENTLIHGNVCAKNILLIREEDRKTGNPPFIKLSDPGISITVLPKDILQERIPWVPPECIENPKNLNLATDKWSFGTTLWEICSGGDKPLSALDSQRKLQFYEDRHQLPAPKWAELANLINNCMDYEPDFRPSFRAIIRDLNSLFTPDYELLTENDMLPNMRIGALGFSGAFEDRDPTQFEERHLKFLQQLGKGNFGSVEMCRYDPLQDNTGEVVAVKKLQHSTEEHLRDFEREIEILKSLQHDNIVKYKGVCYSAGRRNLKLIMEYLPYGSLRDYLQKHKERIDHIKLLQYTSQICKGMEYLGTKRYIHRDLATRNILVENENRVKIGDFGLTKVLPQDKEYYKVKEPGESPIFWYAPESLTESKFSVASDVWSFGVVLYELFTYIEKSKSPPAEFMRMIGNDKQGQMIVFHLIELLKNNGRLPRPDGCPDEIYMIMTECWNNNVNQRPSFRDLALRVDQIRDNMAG
Chain of Aurora kinase B (Q96GD4 whole entry): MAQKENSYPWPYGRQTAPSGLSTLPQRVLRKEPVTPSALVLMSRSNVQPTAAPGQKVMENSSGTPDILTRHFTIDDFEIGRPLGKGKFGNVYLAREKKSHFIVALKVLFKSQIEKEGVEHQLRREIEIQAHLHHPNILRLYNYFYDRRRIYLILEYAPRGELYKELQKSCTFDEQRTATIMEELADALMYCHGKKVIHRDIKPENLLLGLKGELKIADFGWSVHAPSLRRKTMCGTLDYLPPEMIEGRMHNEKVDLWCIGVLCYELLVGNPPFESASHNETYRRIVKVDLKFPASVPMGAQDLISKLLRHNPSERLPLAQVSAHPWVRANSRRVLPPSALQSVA
Chain of Cyclin-dependent kinase 1 (P06493 whole entry): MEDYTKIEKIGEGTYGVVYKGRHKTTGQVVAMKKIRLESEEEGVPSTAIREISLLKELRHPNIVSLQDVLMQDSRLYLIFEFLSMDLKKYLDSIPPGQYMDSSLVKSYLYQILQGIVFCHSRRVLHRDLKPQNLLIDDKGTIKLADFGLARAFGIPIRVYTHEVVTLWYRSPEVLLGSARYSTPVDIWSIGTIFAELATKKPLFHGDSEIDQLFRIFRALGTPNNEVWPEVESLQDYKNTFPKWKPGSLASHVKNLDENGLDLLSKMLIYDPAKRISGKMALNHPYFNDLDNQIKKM
Chain of Tyrosine-protein kinase JAK1 (P23458 whole entry): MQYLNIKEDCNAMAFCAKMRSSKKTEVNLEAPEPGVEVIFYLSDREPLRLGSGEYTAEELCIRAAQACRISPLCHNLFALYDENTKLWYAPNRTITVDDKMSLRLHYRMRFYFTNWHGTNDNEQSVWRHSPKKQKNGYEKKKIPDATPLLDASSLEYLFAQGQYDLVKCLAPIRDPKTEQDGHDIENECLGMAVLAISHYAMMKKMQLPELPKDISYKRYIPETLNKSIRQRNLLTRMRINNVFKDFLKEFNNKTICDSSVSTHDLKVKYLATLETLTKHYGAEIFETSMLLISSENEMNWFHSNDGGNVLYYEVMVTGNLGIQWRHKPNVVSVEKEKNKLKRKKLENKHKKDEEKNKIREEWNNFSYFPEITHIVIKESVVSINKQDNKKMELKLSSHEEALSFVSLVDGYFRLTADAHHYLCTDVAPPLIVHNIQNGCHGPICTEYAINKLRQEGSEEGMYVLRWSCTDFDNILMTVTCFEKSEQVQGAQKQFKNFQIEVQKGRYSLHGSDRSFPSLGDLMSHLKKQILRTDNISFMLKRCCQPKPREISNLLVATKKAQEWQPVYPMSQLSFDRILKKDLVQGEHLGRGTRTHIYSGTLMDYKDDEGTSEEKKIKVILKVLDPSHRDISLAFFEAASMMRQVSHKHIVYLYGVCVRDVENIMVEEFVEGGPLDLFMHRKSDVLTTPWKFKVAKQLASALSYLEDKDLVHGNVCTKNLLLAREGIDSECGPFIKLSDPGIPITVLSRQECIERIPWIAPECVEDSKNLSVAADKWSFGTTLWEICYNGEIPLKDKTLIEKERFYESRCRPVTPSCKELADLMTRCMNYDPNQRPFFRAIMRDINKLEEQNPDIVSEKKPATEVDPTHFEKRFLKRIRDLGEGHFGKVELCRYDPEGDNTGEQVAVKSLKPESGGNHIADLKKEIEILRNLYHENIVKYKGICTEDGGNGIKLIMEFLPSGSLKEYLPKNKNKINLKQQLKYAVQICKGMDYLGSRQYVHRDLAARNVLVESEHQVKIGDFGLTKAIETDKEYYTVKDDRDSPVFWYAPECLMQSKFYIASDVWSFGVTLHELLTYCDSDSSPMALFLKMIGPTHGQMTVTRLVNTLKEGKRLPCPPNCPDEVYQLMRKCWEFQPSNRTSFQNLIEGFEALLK
Chain of Bifunctional protein GlmU (C3SLB7 whole entry): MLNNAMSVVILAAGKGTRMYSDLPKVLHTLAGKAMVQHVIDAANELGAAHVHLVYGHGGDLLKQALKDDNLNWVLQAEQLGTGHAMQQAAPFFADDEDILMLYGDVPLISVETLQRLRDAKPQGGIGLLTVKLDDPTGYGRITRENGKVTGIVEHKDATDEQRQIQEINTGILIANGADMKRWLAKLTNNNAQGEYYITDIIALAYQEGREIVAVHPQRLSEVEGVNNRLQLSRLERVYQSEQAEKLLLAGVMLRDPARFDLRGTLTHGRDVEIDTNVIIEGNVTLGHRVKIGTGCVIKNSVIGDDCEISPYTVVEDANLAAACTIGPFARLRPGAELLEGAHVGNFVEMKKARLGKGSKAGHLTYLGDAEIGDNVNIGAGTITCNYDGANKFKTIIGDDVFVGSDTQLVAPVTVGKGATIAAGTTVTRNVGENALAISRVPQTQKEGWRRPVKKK
Chain of Interleukin-1 receptor-associated kinase 1 (P51617 whole entry): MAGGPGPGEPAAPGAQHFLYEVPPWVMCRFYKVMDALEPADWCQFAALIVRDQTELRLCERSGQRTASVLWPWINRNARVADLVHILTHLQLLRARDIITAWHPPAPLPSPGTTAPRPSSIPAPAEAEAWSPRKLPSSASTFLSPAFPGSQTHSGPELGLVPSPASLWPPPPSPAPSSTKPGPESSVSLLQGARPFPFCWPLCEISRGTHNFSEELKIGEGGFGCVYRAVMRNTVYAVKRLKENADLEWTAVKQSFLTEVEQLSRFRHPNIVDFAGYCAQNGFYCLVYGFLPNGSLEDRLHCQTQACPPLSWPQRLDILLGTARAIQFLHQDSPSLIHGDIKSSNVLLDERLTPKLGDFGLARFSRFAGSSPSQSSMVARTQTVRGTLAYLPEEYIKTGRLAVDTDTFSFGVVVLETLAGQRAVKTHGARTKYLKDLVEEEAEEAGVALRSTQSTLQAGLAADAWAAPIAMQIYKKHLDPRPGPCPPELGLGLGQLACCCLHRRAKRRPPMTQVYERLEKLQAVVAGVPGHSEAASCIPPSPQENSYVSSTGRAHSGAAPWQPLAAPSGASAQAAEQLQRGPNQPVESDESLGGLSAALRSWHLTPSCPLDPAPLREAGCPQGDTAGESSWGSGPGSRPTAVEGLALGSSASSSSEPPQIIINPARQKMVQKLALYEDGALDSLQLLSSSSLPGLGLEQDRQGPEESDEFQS

As to `CCNC(=O)Nc1ccc(NC(=O)c2cc(OC)cc(-c3c[nH]c(=O)[nH]c3=O)c2)cc1`, the result with Streptococcus pneumoniae, in the data set on Streptococcus pyogenes, with Haemophilus influenzae and in the data set on Moraxella catarrhalis was inactive. The IC50 in data set [1] is 0.077 µM; in data set [2], more than 30 µM; in data set [3], more than 30 µM; in [4], more than 30 µM; in data set [5], more than 30 µM; in data set [7], more than 30 µM. Further, the IC50 in data set [8] is 0.97 µM; in [9] it was more than 30 µM; in data set [10], more than 30 µM; in data set [11] it was more than 30 µM; on Aurora kinase B, 18.1 µM. Also, the fraction unbound at 0.5 h, 10 µM in data set [6] was 0.159.
Regarding `COc1cc(C(=O)Nc2ccc(NC(=O)c3ccccn3)cc2)cc(N2CCC(=O)NC2=O)c1`, the IC50 is 0.071 µM in data set [1]; more than 30 µM in data set [2]; more than 30 µM in data set [3]; more than 30 µM in data set [4]; more than 30 µM in [5]; more than 30 µM in data set [7]. Besides, the concentration for half-maximal inhibition (IC50) in data set [8] is 1.7 µM; in data set [9], more than 30 µM; in [10], more than 30 µM; in data set [11] it was more than 30 µM; on Aurora kinase B it was 14.3 µM. Also, in [6], the fraction unbound at 0.5 h, 10 µM was 0.097.
For `COc1ccc(C(=O)Nc2ccc(NC(=O)c3ccccn3)cc2)cc1-c1c[nH]c(=O)[nH]c1=O`, the IC50 in data set [1] is 0.95 µM; in data set [2], more than 30 µM; in [3], more than 30 µM; in data set [4], more than 30 µM; in data set [5], more than 30 µM; in data set [7] it was more than 30 µM. Further, the IC50 in data set [8] is more than 22 µM; in data set [9], more than 30 µM; in [10] it was more than 30 µM; in data set [11], more than 30 µM; at Aurora kinase B, more than 30 µM. Moreover, in data set [6], the fraction unbound at 0.5 h, 10 µM is less than 0.01.
As for `COc1cc2c(Nc3ccc(NC(=O)c4ccccc4)cc3)ncnc2cc1OCC(=O)O`, the IC50 in data set [1] was 3.2 µM; in data set [2], more than 30 µM; in data set [3], more than 30 µM; in data set [4] it was more than 30 µM; in data set [5], more than 30 µM; in data set [7], more than 30 µM. The IC50 was 6.7 µM in [8]; more than 30 µM in data set [9]; more than 30 µM in data set [10]; more than 30 µM in data set [11]; 0.689 µM on Aurora kinase B. The fraction unbound at 0.5 h, 10 µM in data set [6] was less than 0.01.
`COc1cc2c(Nc3ccc(NC(=O)c4ccccc4)cc3)nc(C)nc2cc1O`: the IC50 was 0.39 µM in data set [1]; more than 30 µM in [2]; more than 30 µM in data set [3]; more than 30 µM in data set [4]; more than 30 µM in [5]; more than 30 µM in [7]. Also, the IC50 was 2.2 µM in data set [8]; more than 30 µM in data set [9]; more than 30 µM in data set [10]; more than 30 µM in data set [11]; more than 30 µM at Aurora kinase B. Further, in [6], the fraction unbound at 0.5 h, 10 µM is 0.097.
Take `COc1cc2c(Nc3ccc(NC(=O)c4ccccc4)cc3)nc(N)nc2cc1O`: the IC50 was 1.7 µM in data set [1]; more than 30 µM in [2]; more than 30 µM in [3]; more than 30 µM in data set [4]; more than 30 µM in data set [5]; more than 30 µM in data set [7]. Further, the IC50 in [8] is 10.5 µM; in [9] it was more than 30 µM; in data set [10], more than 30 µM; in data set [11], more than 30 µM; on Aurora kinase B, more than 30 µM. Moreover, the fraction unbound at 0.5 h, 10 µM in [6] is 0.023.
For `COc1cc(C(=O)Nc2ccc(NC(=O)c3ccccc3)cc2)c(N)cc1O`, the IC50 in [1] was 6.1 µM; in data set [2], more than 30 µM; in data set [3], more than 30 µM; in [4], more than 30 µM; in data set [5], more than 30 µM; in [7], more than 30 µM. Besides, the IC50 is 5.9 µM in [8]; more than 30 µM in data set [9]; more than 30 µM in data set [10]; more than 30 µM in data set [11]; more than 30 µM at Aurora kinase B. Also, in data set [6], the fraction unbound at 0.5 h, 10 µM is 0.011.
With `COc1cc(C(=O)Nc2ccc(NC(=O)c3ccccc3)cc2)ccc1O`, the IC50 is 1.4 µM in data set [1]; more than 30 µM in [2]; more than 30 µM in [3]; more than 30 µM in data set [4]; more than 30 µM in [5]; more than 30 µM in data set [7]. For the same molecule, the IC50 was 18 µM in data set [8]; more than 30 µM in data set [9]; more than 30 µM in data set [10]; more than 30 µM in [11]; more than 30 µM at Aurora kinase B. For the same molecule, the fraction unbound at 0.5 h, 10 µM in [6] was less than 0.01.
Consider `O=C(Nc1ccc(NC(=O)c2ccccn2)cc1)c1cccc(-c2c[nH]c(=O)[nH]c2=O)c1`, for which the IC50 was 0.005 µM in [1]; more than 30 µM in [2]; more than 30 µM in [3]; more than 30 µM in data set [4]; more than 30 µM in data set [5]; more than 30 µM in data set [7]. In addition, the IC50 in data set [8] was 0.35 µM; in data set [9], more than 30 µM; in data set [10], more than 30 µM; in data set [11], more than 30 µM; on Aurora kinase B, 7.51 µM. Besides, in [6], the fraction unbound at 0.5 h, 10 µM is 0.019.
In the case of `COc1cc(C(=O)Nc2ccc(NC(=O)C3CCCCN3)cc2)cc(-c2c[nH]c(=O)[nH]c2=O)c1` (stereo not drawn), the outcome in the data set on Streptococcus pneumoniae, with Streptococcus pyogenes, in the data set on Haemophilus influenzae and with Moraxella catarrhalis was inactive. Besides, the IC50 in data set [1] was 0.05 µM; in data set [2] it was more than 30 µM; in data set [3] it was more than 30 µM; in data set [4], more than 30 µM; in [5] it was more than 30 µM; in data set [7], more than 30 µM. Also, the IC50 in [8] is 0.12 µM; in [9], more than 30 µM; in [10] it was more than 30 µM; in data set [11] it was more than 30 µM; at Aurora kinase B, more than 30 µM. Moreover, the fraction unbound at 0.5 h, 10 µM in data set [6] was 0.395.

A word on the IC50: it is the point on the concentration scale where inhibition reaches its midpoint.
